US10189803B2, “Synthesis of therapeutic and diagnostic drugs centered on regioselective and stereoselective ring opening of aziridinium ions” (ILLINOIS INSTITUTE OF TECHNOLOGY, priority 2008, dated 2019)

Key:
[1] = TEM measurement of self-assembled micelles; assay type: physicochemical; conditions: aqueous solution
Source text: Amphifacial cholic acid is a good targeting moiety, and its conjugation to MR contrast agent is expected to form helical globular aggregates with a favorable pharmacokinetic and relaxivity profile. In FIG. 41, cholic acid was converted to an activated amide 1, which was further reacted with a functionalized NE3TA (2) containing an amino group to provide Compound 3. The t-butyl group of Compound 3 was removed by treatment with 4M HCl in 1,4-dioxane to provide CA-NE3TA (4). […] The Gd(III) complex of CA-NE3TA was prepared as described above. Gd(CA-NE3TA) self-assembles into nano-sized micells as evidenced by TEM measurement (˜10 nm, FIG. 24). […] Aggregation of Gd(CA-NE3TA) as evidenced by TEM images is proposed to result from heating during the complexation reaction and/or gadolinium induced cross linking. T1 relaxivity of Gd(CA-NE3TA) in aqueous solution (0.2 mM) was measured to 10.85 mM^−1 s^−1. […] This increase in relaxivity may be a result of slower molecular rotation due to aggregation of the complex as evidenced by the TEM image.
TEM measurement. Stock solutions of compounds CA-NE3TA and Gd(CA-NE3TA) were prepared in 18 MΩ H2O and diluted to the final concentrations of CA-NE3TA (10 μM, pH=5) and Gd(CA-NE3TA) (100 μM or 10 μM, pH=7). In triplicate, a 5 μL aliquot of CA-NE3TA solution was placed on a gold-coated grid (300 mesh, formvar support film, Cat #FF300-Au, Electron Microscopy Sciences, PA). The sample on the grid was air-dried for 5-10 min after each deposition. The grid was air-dried overnight, transferred into a desiccator, and further dried in vacuo for 1.5 days. The sample of Gd(CA-NE3TA) (10 μM) was prepared as described above. […]
TEM images of CDCA-NE3TA indicate that the hydrophobic bile acid conjugated to NE3TA forms discrete semi-square micelles in nanometer size (˜15-60 nm, FIG. 29). […] Aza cholic acid 10 was prepared starting from the readily available cholic acid according to the literature. […]

[2] = system: HT29 cells; test: Antiproliferative activity, MTS assay, HT29 cells; assay type: cell-based, Human; conditions: Homo sapiens, HT-29, 72 h incubation
Method: (§1) Cell culture Human cervix HeLa cell line was obtained from ATCC (Rockville, Md.) and cultured in minimum essential medium (MEM) with L-glutamine (2 mM), Earle's BSS and sodium bicarbonate (1.5 g/L), supplemented with 10% fetal bovine serum (FBS), non-essential amino acids (0.1 mM), sodium pyruvate (1 mM) and antibiotic/antimycotic solution in a humidified atmosphere with 5% CO2 at 37° C. […] Lung fibroblast MRC-5 cell line was obtained from ATCC (Rockville, Md.) and cultured in ATCC formulated EMEM, supplemented with 10% fetal bovine serum (FBS) in a humidified atmosphere with 5% CO2 at 37° C.
(§2) Antiproliferative Activity. Cells were seeded onto 96-well plate at density of 2,000 cells for Hela cells or 5,000 cells for HT29 cells or 5,000 cells for MRC-5 per well in 0.1 mL complete medium and allowed to attach for 24 h. Varying concentrations of the test compounds in the final volume of 0.1 mL complete medium were then added in at least five series dilutions and incubated for 72 h. To measure cell proliferation, the Cell Titer 96 aqueous nonreactive cell proliferation assay (Promega Life Sciences, Madison, Wis.) was used according to the manufacturer's instructions. Briefly, MTS (2 mg/mL) and PMS (0.92 mg/ml) were mixed in a ratio of 20:1. An aliquot (20 μL) of the MTS/PMS mixture was added into each well, and the plate was incubated for 3 h at 37° C. Optical absorbance at 490 nm was then recorded with an enzyme-linked immunosorbent assay (ELISA) microtiter plate reader (Biotek). Each experiment was done at least in triplicate. Antiproliferative activity of the test compounds was expressed as the fraction of optical densities of treated the cells relative to the untreated solvent controls.^31 The data were plotted in GraphPad Prizm 3.0. Nonlinear regression analysis was used to determine IC50 values.
(§3) Cell culture. Human cervix HeLa cell line was obtained from ATCC (Rockville, Md.) and cultured in minimum essential medium (MEM) with L-glutamine (2 mM), Earle's BSS and sodium bicarbonate (1.5 g/L), supplemented with 10% fetal bovine serum (FBS), non-essential amino acids (0.1 mM), sodium pyruvate (1 mM) and antibiotic/antimycotic solution in a humidified atmosphere with 5% CO2 at 37° C.
as §2, with “activity.” for “Activity.”, “cells” for “cells or 5,000 cells for MRC-5”, “controls.” for “controls.^31”

[3] = system: Hela cells; test: Antiproliferative activity, MTS assay, HeLa cells; assay type: cell-based, Human; conditions: Homo sapiens; 72 h incubation, MTS
Method: as §1, §2, §3
as §2, with “activity.” for “Activity.”, “cells” for “cells or 5,000 cells for MRC-5”, “controls.” for “controls.^31”

[4] = T1 relaxivity of Gd(III) complexes (Bruker mq60 NMR analyzer); assay type: physicochemical; conditions: aqueous solution (0.2 mM)
Method: Gd(NE3TA) and Gd(NE3TA-Bn) were synthesized by reacting GdCl3 with NE3TA and NE3TA-Bn, respectively. NE3TA or NE3TA-Bn were mixed with GdCl3 in a molar ratio of 1 to 0.9, and the resulting mixture at pH 7 was heated to 90° C. and stirred until no free Gd(III) ions were detected using an ArsenazoIII (AAIII) assay. Relaxivity of the aqueous […] complexes (pH 7) was measured on a Bruker MQ60 NMR analyzer, and the concentration of the Gd(III) complexes was measured by ICP-MS. […] NE3TA was successfully conjugated with the most common bile acid, cholic acid (FIG. 41).
(§4) Relaxivity Measurements. Relaxivity measurements were acquired by taking the slope of a plot of 1/T1 (s^−1) versus concentration (mM). The longitudinal water proton relaxation times (T1) were determined using a Bruker mq60 NMR (Bruker Canada, Milton, ON, Canada) analyzer operating at 59.97 MHz and 37° C. The agent was added to Millipore water and serially diluted by 0.5 to give a series of 5 concentrations (500 μL total volume) for each relaxivity trial. The T1 was determined using an inversion recovery pulse sequence with 10 different pulse separations per sample, 4 repetitions per echo time, phase cycling, and a recycle delay that is ≥5 times the T1 of each given sample. All curves were fit using a monoexponential curve fitting formula.
Relaxivity of the aqueous Gd(III) complexes (˜pH 7) were measured on a Bruker MQ60 NMR analyzer, and the concentration of the Gd(III) complexes were measured by ICP-MS. […] As mentioned above, the on and off binding to Gd(III) of one of the pendant coordinates would have resulted enhanced relaxivity of Gd(C-NETA) compared to Gd(C-DOTA). Among the evaluated Gd(III) complexes, Gd(C-NE3TA) gives the highest T1 relaxivity at 60 MHz, probably due to increase in q. The relaxation rates for the Gd(III) chelates are dominated by the inner-sphere dipolar coupling between the coordinated water molecule and the paramagnetic Gd(III). The measured relaxivities arise from the exchange between the coordinated water molecule and the surrounding water molecules in solution. […] No indication of Gd(III) dissociation is evident from the relaxivity data, which is in agreement with the in vitro serum stability and in vivo biodistribution studies.
as §4, with “The T1 relaxivity was determined” for “The T1 was determined”

Row | SMILES | micelle size (TEM) [1] | IC50 [2] | IC50 [3] | T1 relaxivity [4]
1 | CC(CCC(=O)Nc1ccc(CC(CN2CCN(CC(=O)O)CCN(CC(=O)O)CC2)NCC(=O)O)cc1)C1CCC2C3C(O)CC4CC(O)CCC4(C)C3CC(O)C12C (centres unmarked) [CA-NE3TA, [4-Carboxymethyl-7-(2-(carboxymethyl-amino)-3-{4-[4-(3,7,12-trihydroxy-10,13-dimethyl-hexadecahydro-cyclopenta[a]phenanthren-17-yl)-pentanoylamino]-phenyl}-propyl)-[1,4,7]triazonan-1-yl]-acetic acid] | 10-50 nm | 8.3 ± 2.4 µM | 24 ± 2.7 µM | 
2 | CC(CCC(=O)Nc1ccc(CC(CN2CCN(CC(=O)O)CCN(CC(=O)O)CC2)NCC(=O)O)cc1)C1CCC2C3C(O)CC4CC(O)CCC4(C)C3CCC12C (centres unmarked) [CDCA-NE3TA, [4-Carboxymethyl-7-(2-(carboxymethyl-amino)-3-{4-[4-(3,7-dihydroxy-10,13-dimethylhexadecahydro-cyclopenta[a]phenanthren-17-yl)-pentanoylamino]-phenyl}-propyl)-[1,4,7]triazonan-1-yl]-acetic acid] | 15-60 nm | 15.5 ± 3.2 µM | 24.6 ± 1 µM | 
3 | CC(CCC(=O)Nc1ccc(CC(CN2CCN(CC(=O)O)CCN(CC(=O)O)CC2)NCC(=O)O)cc1)C1CCC2C3C(O)CC4CC(O)CCC4(C)C3CC(O)C12C.[Gd] (centres unmarked) [Gd(CA-NE3TA)] | ~10 nm |  |  | 10.85 mM⁻¹ s⁻¹
